The values that follow come from US20150289512A1, “METHOD FOR PROMOTING PLANT GROWTH” (SUMITOMO CHEMICAL COMPANY, LIMITED, priority 2012, published 2015).

For experiment [1], the system named is Rice (variety: Nipponbare). The experiment is described as follows: Test Example 3: promotion of root growth by hydroponics of rice, 0.1 ppm. The format is in vivo. Particulars: Oryza sativa, hydroponic solution containing the test compound at 0.1 ppm, average of 4 or 5 individuals, read-out: Relative value of length of seminal root (%-untreated control plot). The procedure, abridged: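 Surface-sterilised Nipponbare seeds were germinated 3 days in the dark at 28 °C in ¼-strength Hoagland solution containing 0.1 ppm compound; DMSO-only solution served as control. Seedlings were then grown 3 days hydroponically at 26 °C, 4,000 lux, 16 h day. Seminal root length was measured and averaged over 4–5 plants.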

The next experiment deals with Nicotiana benthamiana. The experiment is described as follows: Test Example 6: growth promotion under low-temperature stress by hydroponics of Nicotiana benthamiana, 0.1 ppm. The format is in vivo. Particulars: 0.1 ppm in medium, low-temperature stress 7 days at 1.5±1.0° C., green leaf area 3 days later, equation (1). The method, boiled down: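 Seeds grown in half-strength Murashige–Skoog medium (pH 5.8), compound at 0.1 ppm (0.1% DMSO), 7 days at 22 °C, 4,000 lux, 16 h day; then 7 days at 1.5±1.0 °C, 2,000 lux; then 3 days recovery at 22 °C. Green leaf area imaged; relative leaf area versus DMSO controls before and after cold, ≥5 scored as mitigating.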

Consider `O=C(NCc1ccccc1)c1cc2cc(C(F)(F)F)ccc2o1` [Compound 54], for which the change in vivo at 0.1 ppm in experiment [1] is above 5%. The compound further gave a relative leaf area (% of untreated control) at 0.1 ppm in the experiment on Nicotiana benthamiana of at least 5%. Take `COC(=O)c1oc2ccc(C(F)(F)F)cc2c1O` [Compound 50]: the change in vivo at 0.1 ppm in experiment [1] was above 5%. In the experiment with Nicotiana benthamiana, the relative leaf area (% of untreated control) at 0.1 ppm is at least 5%. Compound `COC(=O)c1oc2ccc(C(F)(F)F)cc2c1N(C)C` [Compound 62] displayed a relative leaf area (% of untreated control) at 0.1 ppm in the experiment on Nicotiana benthamiana of at least 5%.

Turning to `NC(=O)c1cc2cc(C(F)(F)F)ccc2o1` [Compound 51], the change in vivo at 0.1 ppm in experiment [1] is above 5%. In the experiment with Nicotiana benthamiana, `COC(=O)c1oc2ccccc2c1NC(=O)C(F)(F)F` [Compound 39] had a relative leaf area (% of untreated control) at 0.1 ppm of at least 5%. Regarding `O=C(Nc1ccccc1)c1cc2cc(C(F)(F)F)ccc2o1` [Compound 53], the change in vivo at 0.1 ppm in experiment [1] was above 5%. For the same compound, in the experiment on Nicotiana benthamiana, the relative leaf area (% of untreated control) at 0.1 ppm is at least 5%. Taken in the same sequence, the figures for `Cc1c(C(=O)O)oc2ccccc12` [Compound 36] were above 5% and at least 5%. Turning to `COC(=O)c1oc2ccc(C(F)(F)F)cc2c1NS(C)(=O)=O` [Compound 67], in experiment [1], the change in vivo at 0.1 ppm is above 5%. `O=C(O)c1oc2ccc(C(F)(F)F)cc2c1C(F)(F)F` [Compound 69] came in with a relative leaf area (% of untreated control) at 0.1 ppm with Nicotiana benthamiana of at least 5%. Turning to `O=C(O)c1cc2c(C(F)(F)F)cccc2o1` [Compound 43], the change in vivo at 0.1 ppm in experiment [1] was above 5%. For the same compound, the relative leaf area (% of untreated control) at 0.1 ppm in the experiment with Nicotiana benthamiana was at least 5%. As for `COC(=O)c1oc2ccc(C(F)(F)F)cc2c1NC(C)=O` [Compound 63], the relative leaf area (% of untreated control) at 0.1 ppm in the experiment with Nicotiana benthamiana was at least 5%. Take `COC(=O)c1oc2ccccc2c1N(C(C)=O)C(C)=O` [Compound 41]: the change in vivo at 0.1 ppm in experiment [1] was above 5%. The compound `O=C(NCc1ccccc1)c1oc2ccc(C(F)(F)F)cc2c1C(F)(F)F` [Compound 77] had a relative leaf area (% of untreated control) at 0.1 ppm in the experiment on Nicotiana benthamiana of at least 5%.

In the case of `COC(=O)c1oc2ccc(C(F)(F)F)cc2c1N(C(C)=O)C(C)=O` [Compound 64], the change in vivo at 0.1 ppm in experiment [1] was above 5%. In the experiment with Nicotiana benthamiana, this compound registered a relative leaf area (% of untreated control) at 0.1 ppm of at least 5%.

For the compound `CNC(=O)c1cc2cc(C(F)(F)F)ccc2o1` [Compound 52], the change in vivo at 0.1 ppm in experiment [1] was above 5%. The same compound had a relative leaf area (% of untreated control) at 0.1 ppm in the experiment with Nicotiana benthamiana of at least 5%. As for `COC(=O)c1oc2ccccc2c1NC(C)=O` [Compound 40], the change in vivo at 0.1 ppm in experiment [1] was above 5%. In the case of `COC(=O)c1oc2ccc(C(F)(F)F)cc2c1NC(=O)C(F)(F)F` [Compound 65], in the experiment on Nicotiana benthamiana, the relative leaf area (% of untreated control) at 0.1 ppm is at least 5%. `COC(=O)c1oc2ccc(C(F)(F)F)cc2c1C(F)(F)F` [Compound 70] registered a relative leaf area (% of untreated control) at 0.1 ppm in the experiment on Nicotiana benthamiana of at least 5%. In the case of `O=C(O)c1nc2c(F)cc(F)cc2s1` [Compound 86], the relative leaf area (% of untreated control) at 0.1 ppm in the experiment on Nicotiana benthamiana was at least 5%. Take `NC(=O)c1oc2ccccc2c1C(F)(F)F` [Compound 85]: in the experiment on Nicotiana benthamiana, the relative leaf area (% of untreated control) at 0.1 ppm is at least 5%. As to `CCOC(=O)c1oc2ccc(C(F)(F)F)cc2c1C(F)(F)F` [Compound 71], in experiment [1], the change in vivo at 0.1 ppm is above 5%. The same compound displayed a relative leaf area (% of untreated control) at 0.1 ppm with Nicotiana benthamiana of at least 5%. Consider `COC(=O)c1cc2cc(C(F)(F)F)ccc2o1` [Compound 3, methyl 5-(trifluoromethyl)benzofuran-2-carboxylate], for which the relative leaf area (% of untreated control) at 0.1 ppm in the experiment with Nicotiana benthamiana is at least 5%.

In the case of `COC(=O)c1oc2ccc(C(F)(F)F)cc2c1NS(=O)(=O)c1ccccc1` [Compound 68], the change in vivo at 0.1 ppm in experiment [1] was above 5%. In the experiment with Nicotiana benthamiana, the relative leaf area (% of untreated control) at 0.1 ppm was at least 5%. Taken in the same sequence, the figures for `COC(=O)c1cc2c(C(F)(F)F)cccc2o1` [Compound 45] were above 5% and at least 5%. For the compound `Cc1c(C(=O)O)oc2ccc(C(F)(F)F)cc12` [Compound 34], the change in vivo at 0.1 ppm in experiment [1] is above 5%. Regarding `O=C(Oc1ccccc1)c1cc2cc(C(F)(F)F)ccc2o1` [Compound 55], the change in vivo at 0.1 ppm in experiment [1] was above 5%. On to `O=C(OCc1ccccc1)c1cc2cc(C(F)(F)F)ccc2o1` [Compound 56], for which the change in vivo at 0.1 ppm in experiment [1] was above 5%. This compound also yielded a relative leaf area (% of untreated control) at 0.1 ppm with Nicotiana benthamiana of at least 5%. With `CCOC(=O)c1cc2c(C(F)(F)F)cccc2o1` [Compound 44], in experiment [1], the change in vivo at 0.1 ppm was above 5%. Same read-out and setting: the result for `CNC(=O)c1oc2ccc(C(F)(F)F)cc2c1C(F)(F)F` [Compound 75] reads above 5%.

On to `O=C(O)c1cc2cc(Br)ccc2o1` [Compound 79], for which the change in vivo at 0.1 ppm in experiment [1] is above 5%. Moreover, in the experiment on Nicotiana benthamiana, the relative leaf area (% of untreated control) at 0.1 ppm was at least 5%.

For the compound `COC(=O)c1oc2ccc(C(F)(F)F)cc2c1C` [Compound 33], the change in vivo at 0.1 ppm in experiment [1] was above 5%. Regarding `COC(=O)c1oc2ccccc2c1C(F)(F)F` [Compound 83], in experiment [1], the change in vivo at 0.1 ppm is above 5%. Turning to `O=C(OCc1ccccc1)c1oc2ccc(C(F)(F)F)cc2c1C(F)(F)F` [Compound 73], the change in vivo at 0.1 ppm in experiment [1] is above 5%. For the same compound, the relative leaf area (% of untreated control) at 0.1 ppm in the experiment on Nicotiana benthamiana is at least 5%. As to `O=C(Nc1ccccc1)c1oc2ccc(C(F)(F)F)cc2c1C(F)(F)F` [Compound 76], the change in vivo at 0.1 ppm in experiment [1] is above 5%. The compound further displayed a relative leaf area (% of untreated control) at 0.1 ppm in the experiment with Nicotiana benthamiana of at least 5%. For `COC(=O)c1oc2ccccc2c1C` [Compound 37], the change in vivo at 0.1 ppm in experiment [1] is above 5%. Consider `NC(=O)c1oc2ccc(C(F)(F)F)cc2c1C(F)(F)F` [Compound 74], for which the change in vivo at 0.1 ppm in experiment [1] is above 5%. This compound gave a relative leaf area (% of untreated control) at 0.1 ppm with Nicotiana benthamiana of at least 5%.

In the case of `CCOC(=O)c1oc2cccc(O)c2c1C` [Compound 80], the change in vivo at 0.1 ppm in experiment [1] is above 5%. The compound further registered a relative leaf area (% of untreated control) at 0.1 ppm in the experiment with Nicotiana benthamiana of at least 5%.
